Measured values published in patent publication US11472781B2, “2-aminoaryl-5-aryloxazole analogs for the treatment of neurodegenerative diseases” (Southern Research Institute, priority 2018, dated 2022).
Read-outs that look alike come from different tables or passages of the source.

Legend:
NF-κB = test: High throughput assay for NF-κB reporter activity (luciferase) in stably transfected SH-SY5Y cells; type: cell-based, human; settings: for EC50: 24 hr; for maximal fold induction: 24 h, read-out: Emax
Description: SH-SY5Y human neuroblastoma cell line was obtained from the American Tissue Culture collection (ATCC). A commercially available expression vector containing the NF-kB promoter enhancer region driving the firefly luciferase gene expression and a second plasmid containing the gene conferring resistance to blasticidin were used in a dual transfection approach to obtain a stable cell line. […] Luciferase activity was measured as a reporter of NF-kB activation using the Bright-Glo Luciferase assay kit (Cat. No. E2620, Promega, Madison, Wis.) according to the manufacturer's instructions. Cell viability was measured using the CellTiter-Glo Luminescent Cell Viability assay kit (Cat. No. G7572, Promega, Madison, Wis.) according to the manufacturer's instructions. Briefly, cells were equilibrated at room temperature for 30 min prior to the addition of Bright-Glo to the white opaque plates or CellTiter-Glo to the black clear bottom plates. A volume of assay buffer equal to the volume of cell media was added to each well and incubated for five min to allow complete cell lysis. All procedures were performed in the dark.

SOD2 [1] = test: Quantitative RT-PCR for SOD2 mRNA in SH-SY5Y neuroblastoma cells; type: cell-based, human; settings: 1 μM, 6 h
Description: Referring to FIG. 1A and FIG. 1B, SH-SY5Y neuroblastoma cells were treated with vehicle or compounds (1 μM) for 6 or 24 hours, and cells were collected for RNA isolation (Trizol method). Quantitative RT-PCR for Manganese superoxide dismutase (SOD2; FIG. 1A) or brain-derived neurotrophic factor (BDNF, exon 1; FIG. 1B) indicates short-term upregulation of SOD2 and BDNF and sustained upregulation of BDNF (n=3-4/group, one-way ANOVA followed by unpaired t-test; […]).
Referring to FIG. 6, treatment of SH-SY5Y neuroblastoma cells with compounds (1 μM, 6 h) induced SOD2 mRNA expression >2 fold, as detected by q-RT-PCR. N=4/group, mean+/−SEM, 2-way ANOVA, post-hoc t-test. *p<0.05).

SOD2 [2] = test: Quantitative RT-PCR for SOD2 mRNA in NSC-34 neuroblastoma cells; type: cell-based, mouse; settings: NSC-34, 1 μM, 24 h
SOD2 [3] = test: SOD2 protein expression and SOD activity in primary rat cortical cultures; type: cell-based
Source text: N=3-6/group, mean+/−SEM, *p<0.05, **p<0.01, 2-way ANOVA, post-hoc t-test.

In vivo PK (I.V./P.O.) = test: In vivo PK (I.V./P.O.); parameters: species or system mice; settings: I.V./P.O., 1 and 5 mg/kg, respectively; for half-life: male, CD1, mouse, plasma, read-out: plasma half-life (t1/2)
Description: Before the studies above were initiated, congenic SOD1 G93A mice were dosed with 50 mg/kg of compound no. 1 and compound no. 2 via I.P. injection to rule out any toxicity issues prior to initiating the efficacy study (FIG. 4A-C).
The experiments will involve the administration of compounds to 5-6 week old CD1 male mice. Mice are dosed by either a 1 mg/kg IV bolus or 5 mg/kg oral gavage. Blood samples are collected by cardiac puncture at 0, 0.25, 0.5, 1, 2, 4, 6, 8, 12, and 24 hrs. There will be three mice per time point. Plasma concentration over time will be determined by LC/MS from which the standard PK parameters of clearance, volume of distribution, t1/2 and % F can be derived using WinNoLin software (Pharsight Inc.). This will require a total of 60 mice per compound. Plasma will be analyzed by reverse phase chromatography with MS/MS detection operating in the positive ion mode using multiple reaction monitoring using an internal standard and Applied Biosystems Analyst 1.4 software. Peak time (when maximum plasma drug concentration occurs), peak drug level [approximate maximum concentrations of drug in plasma (Cmax)] and t1/2 for drug elimination will be estimated for each tested compound. Bioavailability (F) will be calculated from the ratio of AUCPO/AUCIV and expressed as a percentage. To determine levels in brain, six additional mice will be dosed with 1 mg/kg I.V. and sacrificed at 0.25 and 1 hr. Brain and spinal cord samples will be collected at these two time points, quick frozen in an ice box and kept at −75±15° C. All samples will be weighed and homogenized with phosphate buffered saline (PBS) by brain weight (g) to PBS volume (mL) ratio 1:3 before analysis. The actual concentration is the detected value multiplied by the dilution factor.

[4] = Plasma and brain levels after I.P. dosing of SOD1 G93A mice; type: in vivo; settings: 50 mg/kg I.P., within 30 minutes
[5] = system: SOD1 G93A transgenic mouse; test: Efficacy in the SOD1 G93A transgenic mouse model of ALS; type: in vivo; settings: 25 mg/kg I.P. daily from day 96
Description: Briefly, Congenic SOD1-G93A mice were doced with up to 50 mg/kg of both compounds (IP) to evaluate any toxicity issues prior to initiating the efficacy study. Also, mice administered 20 mg of each compound had high plasma and brain levels at 30 minutes. Next, individually genotyped SOD1-G93A mice (Prize4life-Jackson Labs) were treated with each compound (25 mg/kg, IP) at disease onset (day 96). The treatment extended survival, reduced weight loss and improved the neurologic symptoms. […] The average weight within the groups before the treatment was similar.
While compounds which increase SOD2 expression and activity have potential utility in a number of neurodegenerative diseases involving ROS overproduction, it was decided to test these two compounds in a mouse model of ALS for a variety of reasons, including the evidence for oxidative stress in ALS (described above), the ability of these compounds to induce SOD2 in a motor neuron-like mouse cell line (NSC-34; FIG. 3B), and the availability of a mouse model with dysfunction in SOD1 (human SOD1 G93A transgenic mouse; Jackson Laboratory). The pilot experiment involved treating six wildtype and six SOD1 G93A transgenic males on the C57BL/6 background with 25 mg/kg compound no. 1 and compound no. 2 I.P. daily, beginning around disease onset (day 96; FIG. 4A and FIG. 4B). Mouse survival and behavioral phenotype were observed based on guidelines from “Working with ALS mice: JAX handbook,” using a 4-point severity score (FIG. 4C).
Referring to FIG. 4A and FIG. 4B, SOD1 G93A mice received daily IP injections of saline (control) or compounds (25 mg/kg) starting on day 96.
Referring. To FIG. 4C, progression from neurological score 1 was delayed only by compound no. 2 (2 day delay, +30%), progression to higher (worse) scores was delayed by both compounds. *P<0.05; **P<0.01, 2-way ANOVA.

Row | Compound | EC50 (NF-κB) | maximal fold induction (NF-κB; Homo sapiens) | other results
1 | COC(=O)c1ccc(-c2cnc(Nc3c(F)cc(F)cc3F)o2)cc1 [Compound 72] | Inactive | 3.97 | –
2 | O=C(/C=C\Nc1ccccc1Br)c1ccc2c(c1)OCO2 [Compound 1, (Z)-1-(Benzo[d][1,3]dioxol-5-yl)-3-((2-bromophenyl)amino)prop-2-en-1-one] | – | 26 | EC50 (NF-κB; Homo sapiens, read-out: EC50): 0.5 µM; SOD2 mRNA expression (SOD2 [1]; q-RT-PCR): ~2 fold; SOD2 mRNA expression (SOD2 [1]; SH-SY5Y): induce SOD2; SOD2 mRNA expression (SOD2 [2]): induce SOD2; SOD2 protein expression (SOD2 [3]): induce SOD2; SOD activity (SOD2 [3]): increase; oral bioavailability (In vivo PK (I.V./P.O.)): lack of oral bioavailability; half-life (In vivo PK (I.V./P.O.)): < 5 min; plasma and brain levels [4]: substantial plasma and brain levels; progression to higher (worse) neurological scores / score of 4 [5]: delayed; survival [5]: significantly prolonged
3 | CC(C)N(c1ccc(F)cc1)c1ncc(-c2cccc(C(=O)O)c2)o1 [Compound 83] | Inactive | 4.5 | –
4 | COC(=O)c1cccc(-c2cnc(Nc3ccc(C(F)(F)F)cc3)o2)c1 [Compound 87] | Inactive | 5.29 | –
5 | COC(=O)c1cccc(-c2cnc(Nc3c(F)cc(F)cc3F)o2)c1 [Compound 64] | – | 12.3 | EC50 (NF-κB; Homo sapiens, read-out: EC50): > 10 µM
6 | O=C(O)c1ccccc1-c1cnc(Nc2cc(F)ccc2F)o1 [Compound 55] | Inactive | 4.46 | –
7 | O=C(O)c1ccc(-c2cnc(Nc3cccc(F)c3)o2)cc1 [Compound 50] | Inactive | 6.15 | –
8 | COC(=O)c1ccccc1-c1cnc(Nc2c(F)cccc2F)o1 [Compound 78] | Inactive | 4.36 | –
9 | NCc1cccc(-c2cnc(Nc3ccccc3F)o2)c1 [Compound 96] | Inactive | 5.14 | –
10 | COC(=O)c1cccc(-c2cnc(Nc3ccc(C#N)cc3)o2)c1 [Compound 88] | Inactive | 3.49 | –
11 | COC(=O)c1ccc(-c2cnc(Nc3ccc(F)cc3)o2)cc1 [Compound 67] | Inactive | – | –
12 | Nc1cccc(-c2cnc(Nc3ccccc3F)o2)c1 [Compound 97] | Inactive | 0.55 | –
13 | O=C(O)c1cccc(-c2cnc(Nc3ccc(Cl)cc3)o2)c1 [Compound 84] | – | 11.3 | EC50 (NF-κB; Homo sapiens, read-out: EC50): 0.75 µM
14 | Cc1noc(-c2cccc(-c3cnc(N(C)c4ccc(F)cc4)o3)c2)n1 [Compound 98] | Inactive | 3.2 | –
15 | COC(=O)c1ccc(-c2cnc(Nc3ccc(F)cc3F)o2)cc1 [Compound 68] | – | 4.41 | EC50 (NF-κB; Homo sapiens, read-out: EC50): > 10 µM
16 | Fc1ccccc1Nc1nc(-c2ccccn2)no1 [Compound 81, N-(2-fluorophenyl)-3-(pyridin-2-yl)-1,2,4-oxadiazol-5-amine] | – | 14.4 | EC50 (NF-κB; Homo sapiens, read-out: EC50): 2.51 µM

Row | Compound | EC50 (NF-κB) | maximal fold induction (NF-κB; Homo sapiens) | other results
17 | O=C(O)c1cccc(-c2cnc(Nc3c(F)cc(F)cc3F)o2)c1 [Compound 48] | – | 14.1 | EC50 (NF-κB; Homo sapiens, read-out: EC50): > 10 µM
18 | COC(=O)c1ccccc1-c1cnc(Nc2cccc(F)c2)o1 [Compound 74] | Inactive | 2.37 | –
19 | COC(=O)c1cccc(-c2cnc(N(c3ccc(F)cc3)C(C)C)o2)c1 [Compound 86] | Inactive | 2.2 | –
20 | COC(=O)c1cccc(-c2cnc(Nc3ccc(OC)cc3)o2)c1 [Compound 90] | Inactive | 2.47 | –
21 | Fc1ccc(Nc2ncc(-c3cccc(-c4nnn[nH]4)c3)o2)cc1 [Compound 93] | Inactive | 2.59 | –
22 | CCCN(c1ccc(F)cc1)c1ncc(-c2cccc(C(=O)OC)c2)o1 [Compound 89] | Inactive | 3 | –
23 | COC(=O)c1ccccc1-c1cnc(Nc2ccc(F)cc2)o1 [Compound 75] | Inactive | 2.97 | –
24 | COC(=O)c1ccccc1-c1cnc(Nc2ccccc2F)o1 [Compound 73] | Inactive | 2.37 | –
25 | COC(=O)c1ccccc1-c1cnc(Nc2ccc(F)cc2F)o1 [Compound 76] | Inactive | 4.45 | –
26 | COC(=O)c1cccc(-c2cnc(Nc3ccc(Cl)cc3)o2)c1 [Compound 85] | Inactive | 5.77 | –
27 | COC(=O)c1ccc(-c2cnc(Nc3cccc(F)c3F)o2)cc1 [Compound 71] | Inactive | 7.24 | –
28 | O=C(O)c1ccccc1-c1cnc(Nc2ccccc2F)o1 [Compound 54] | Inactive | 5.37 | –
29 | O=C(O)c1ccc(-c2cnc(Nc3ccc(F)cc3)o2)cc1 [Compound 51] | Inactive | 4.22 | –
30 | COC(=O)c1ccccc1-c1cnc(Nc2cc(F)ccc2F)o1 [Compound 77] | Inactive | 2.29 | –
31 | Cc1cccnc1Nc1nc(-c2ccccn2)cs1 [Compound 2] | – | 40 | EC50 (NF-κB; Homo sapiens, read-out: EC50): 0.21 µM; SOD2 mRNA expression (SOD2 [1]; q-RT-PCR): ~2 fold; SOD2 mRNA expression (SOD2 [1]; SH-SY5Y): induce SOD2; SOD2 mRNA expression (SOD2 [2]): induce SOD2; SOD2 protein expression (SOD2 [3]): induce SOD2; SOD activity (SOD2 [3]): increase; oral bioavailability (In vivo PK (I.V./P.O.)): lack of oral bioavailability; half-life (In vivo PK (I.V./P.O.)): < 5 min; plasma and brain levels [4]: substantial plasma and brain levels; progression to higher (worse) neurological scores / score of 4 [5]: delayed; survival [5]: significantly prolonged
32 | O=C(O)c1ccc(-c2cnc(Nc3c(F)cccc3F)o2)cc1 [Compound 53] | Inactive | – | –
